From patent publication US9687479B2, “Multisubstituted aromatic compounds as serine protease inhibitors” (VERSEON CORPORATION, priority 2013, dated 2017)

Key:
Human KLKB1 = Human KLKB1 (Homo sapiens (Human), UniProt P03952); experiment: KLKB1 kallikrein activity inhibition assay (chromogenic substrate S-2302); type: biochemical; details: Table B
In short: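 Enzyme at a final 3 nM was assayed in 0.05 M Tris pH 7.4, 0.01 M NaCl and 0.2% PEG-8000 at room temperature, with compounds as ten-point threefold dilutions.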

Human thrombin = Human thrombin (Homo sapiens (Human), UniProt P00734); experiment: Thrombin protease activity inhibition assay (chromogenic substrate S-2238); type: biochemical; details: 3 nM thrombin, 125 μM S-2238, 10 min pre-incubation, RT
In short: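 Ten-point, three-fold serial dilutions of compound tested against 3 nM enzyme at RT in Tris buffer (0.05 M, pH 7.4) with 0.015 M NaCl and 0.01% PEG-8000.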

Sequence of Human KLKB1 (P03952 391-638 limits assumed): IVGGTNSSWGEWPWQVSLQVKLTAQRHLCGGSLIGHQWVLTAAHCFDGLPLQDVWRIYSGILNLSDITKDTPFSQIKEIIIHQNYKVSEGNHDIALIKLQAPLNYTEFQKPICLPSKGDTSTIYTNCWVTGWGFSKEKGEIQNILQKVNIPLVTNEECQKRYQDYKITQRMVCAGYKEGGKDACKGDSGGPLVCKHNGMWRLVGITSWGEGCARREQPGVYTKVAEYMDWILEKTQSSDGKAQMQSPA
Sequence of Human KLKB1 (P03952 20-390 partner limits assumed): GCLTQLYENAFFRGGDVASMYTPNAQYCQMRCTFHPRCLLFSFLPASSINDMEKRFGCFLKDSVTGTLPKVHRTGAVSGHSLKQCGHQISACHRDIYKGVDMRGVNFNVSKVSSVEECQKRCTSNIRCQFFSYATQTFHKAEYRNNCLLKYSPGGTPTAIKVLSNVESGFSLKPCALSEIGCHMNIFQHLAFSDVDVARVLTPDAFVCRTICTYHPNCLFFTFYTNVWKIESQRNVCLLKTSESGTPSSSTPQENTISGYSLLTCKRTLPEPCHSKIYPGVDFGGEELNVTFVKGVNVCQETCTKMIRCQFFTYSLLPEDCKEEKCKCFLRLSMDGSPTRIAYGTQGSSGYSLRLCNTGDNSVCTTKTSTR

Structure (SMILES) | IC50 (Human KLKB1) [nM] | IC50 (Human thrombin) [nM]
O=C(c1ccc(N2CCOCC2)cc1)n1nc(-c2cccn(Cc3ccccc3)c2=O)cc1NCc1ccc(Cl)s1 [Cmpd 53, 1-benzyl-3-(5-[(5-chlorothiophen-2-yl)methyl]amino-1-[4-(morpholin-4-yl)phenyl]carbonyl-1H-pyrazol-3-yl)-1,2-dihydropyridin-2-one] | > 100000 | < 100
COc1ccc(C(=O)n2nc(-c3cccn(Cc4ccoc4)c3=O)cc2NCc2ccc(Cl)s2)c(OC)c1 [Cmpd 123, 3-(5-[(5-chlorothiophen-2-yl)methyl]amino-1-[(2,4-dimethoxyphenyl)carbonyl]-1H-pyrazol-3-yl)-1-(furan-3-ylmethyl)-1,2-dihydropyridin-2-one] | 10000 to 100000 | < 100
COCC(C)(C)C(=O)n1nc(-c2cccn(Cc3ccncc3)c2=O)cc1NCc1ccc(Cl)s1 [Cmpd 103, 3-(5-[(5-chlorothiophen-2-yl)methyl]amino-1-(3-methoxy-2,2-dimethylpropanoyl)-1H-pyrazol-3-yl)-1-(pyridin-4-ylmethyl)-1,2-dihydropyridin-2-one] | 10000 to 100000 | < 100
COc1ccc(C(=O)n2nc(-c3cccn(Cc4ccccn4)c3=O)cc2NCc2ccc(Cl)s2)c(OC)c1 [Cmpd 125, 3-(5-[(5-chlorothiophen-2-yl)methyl]amino-1-[(2,4-dimethoxyphenyl)carbonyl]-1H-pyrazol-3-yl)-1-(pyridin-2-ylmethyl)-1,2-dihydropyridin-2-one] | 1000 to 10000 | < 100
O=C(c1ccc(N2CCOCC2)cc1)n1nc(-c2cccn(CCN3CCOCC3)c2=O)cc1NCc1ccc(Cl)s1 [Cmpd 218, 3-(5-[(5-chlorothiophen-2-yl)methyl]amino-1-[4-(morpholin-4-yl)phenyl]carbonyl-1H-pyrazol-3-yl)-1-[2-(morpholin-4-yl)ethyl]-1,2-dihydropyridin-2-one] | 100 to 1000 | < 100
COc1ccc(C(=O)n2nc(-c3cccn(Cc4ccccc4)c3=O)cc2NCc2ccc(Cl)s2)c(OC)c1 [Cmpd 46, 1-benzyl-3-(5-[(5-chlorothiophen-2-yl)methyl]amino-1-[(2,4-dimethoxyphenyl)carbonyl]-1H-pyrazol-3-yl)-1,2-dihydropyridin-2-one] | 10000 to 100000 | < 100
COCCn1cccc(-c2cc(NCc3ccc(Cl)s3)n(C(=O)c3ccccc3)n2)c1=O [Cmpd 62, 3-(1-benzoyl-5-[(5-chlorothiophen-2-yl)methyl]amino-1H-pyrazol-3-yl)-1-(2-methoxyethyl)-1,2-dihydropyridin-2-one] | 1000 to 10000 | < 100
COCC(C)(C)C(=O)n1nc(-c2cccn(Cc3ccsc3)c2=O)cc1NCc1ccc(Cl)s1 [Cmpd 106, 3-(5-[(5-chlorothiophen-2-yl)methyl]amino-1-(3-methoxy-2,2-dimethylpropanoyl)-1H-pyrazol-3-yl)-1-(thiophen-3-ylmethyl)-1,2-dihydropyridin-2-one] | > 100000 | < 100
O=C(c1ccc(N2CCOCC2)cc1)n1nc(-c2cccn(Cc3ccncc3)c2=O)cc1NCc1ccc(Cl)s1 [Cmpd 214, 3-(5-[(5-chlorothiophen-2-yl)methyl]amino-1-[4-(morpholin-4-yl)phenyl]carbonyl-1H-pyrazol-3-yl)-1-(pyridin-4-ylmethyl)-1,2-dihydropyridin-2-one] | 100 to 1000 | < 100
O=c1c(-c2cc(NCc3ccc(Cl)s3)n[nH]2)cccn1CCc1ccccn1 [Cmpd 235, 3-(5-[(5-chlorothiophen-2-yl)methyl]amino-1H-pyrazol-3-yl)-1-[2-(pyridin-2-yl)ethyl]-1,2-dihydropyridin-2-one] | 10000 to 100000 | 10000 to 100000
O=C(c1ccoc1)n1nc(-c2cccn(Cc3ccccc3)c2=O)cc1NCc1ccc(Cl)s1 [Cmpd 50, 1-benzyl-3-(5-[(5-chlorothiophen-2-yl)methyl]amino-1-[(furan-3-yl)carbonyl]-1H-pyrazol-3-yl)-1,2-dihydropyridin-2-one] | 10000 to 100000 | < 100
COCC(C)(C)C(=O)n1nc(-c2cccn(Cc3ccco3)c2=O)cc1NCc1ccc(Cl)s1 [Cmpd 98, 3-(5-[(5-chlorothiophen-2-yl)methyl]amino-1-(3-methoxy-2,2-dimethylpropanoyl)-1H-pyrazol-3-yl)-1-(furan-2-ylmethyl)-1,2-dihydropyridin-2-one] | > 100000 | < 100
O=C(c1cccc2c1OCCO2)n1nc(-c2cccn(Cc3ncccn3)c2=O)cc1NCc1ccc(Cl)s1 [Cmpd 116, 3-(5-[(5-chlorothiophen-2-yl)methyl]amino-1-[(2,3-dihydro-1,4-benzodioxin-5-yl)carbonyl]-1H-pyrazol-3-yl)-1-(pyrimidin-2-ylmethyl)-1,2-dihydropyridin-2-one] | 1000 to 10000 | < 100
O=C(c1ccccc1Cl)n1nc(-c2cccn(Cc3ccoc3)c2=O)cc1NCc1ccc(Cl)s1 [Cmpd 244, 3-1-[(2-chlorophenyl)carbonyl]-5-[(5-chlorothiophen-2-yl)methyl]amino-1H-pyrazol-3-yl-1-(furan-3-ylmethyl)-1,2-dihydropyridin-2-one] | 100 to 1000 | < 100

Other lines, results leading:

IC50 (Human KLKB1) [nM] | IC50 (Human thrombin) [nM] | Structure (SMILES)
10000 to 100000 | < 100 | COCC(C)(C)C(=O)n1nc(-c2cccn(Cc3cccnc3)c2=O)cc1NCc1ccc(Cl)s1 [Cmpd 102, 3-(5-[(5-chlorothiophen-2-yl)methyl]amino-1-(3-methoxy-2,2-dimethylpropanoyl)-1H-pyrazol-3-yl)-1-(pyridin-3-ylmethyl)-1,2-dihydropyridin-2-one]
1000 to 10000 | < 100 | CC(C)(CO)C(=O)n1nc(-c2cccn(Cc3cccnc3)c2=O)cc1NCc1ccc(Cl)s1 [Cmpd 94, 3-(5-[(5-chlorothiophen-2-yl)methyl]amino-1-(3-hydroxy-2,2-dimethylpropanoyl)-1H-pyrazol-3-yl)-1-(pyridin-3-ylmethyl)-1,2-dihydropyridin-2-one]
10000 to 100000 | < 100 | COCCn1cccc(-c2cc(NCc3ccc(Cl)s3)n(C(=O)C(C)(C)CO)n2)c1=O [Cmpd 92, 3-(5-[(5-chlorothiophen-2-yl)methyl]amino-1-(3-hydroxy-2,2-dimethylpropanoyl)-1H-pyrazol-3-yl)-1-(2-methoxyethyl)-1,2-dihydropyridin-2-one]
10000 to 100000 | < 100 | CC(C)(CO)C(=O)n1nc(-c2cccn(Cc3ccco3)c2=O)cc1NCc1ccc(Cl)s1 [Cmpd 93, 3-(5-[(5-chlorothiophen-2-yl)methyl]amino-1-(3-hydroxy-2,2-dimethylpropanoyl)-1H-pyrazol-3-yl)-1-(furan-2-ylmethyl)-1,2-dihydropyridin-2-one]
100 to 1000 | < 100 | O=C(c1ccccc1Cl)n1nc(-c2cccn(Cc3ccco3)c2=O)cc1NCc1ccc(Cl)s1 [Cmpd 243, 3-1-[(2-chlorophenyl)carbonyl]-5-[(5-chlorothiophen-2-yl)methyl]amino-1H-pyrazol-3-yl-1-(furan-2-ylmethyl)-1,2-dihydropyridin-2-one]
100 to 1000 | > 100000 | COCCn1cccc(-c2cc(NCc3ccc(Cl)s3)n(C(=O)c3ccco3)n2)c1=O [Cmpd 160, 3-(5-[(5-chlorothiophen-2-yl)methyl]amino-1-[(furan-2-yl)carbonyl]-1H-pyrazol-3-yl)-1-(2-methoxyethyl)-1,2-dihydropyridin-2-one]
1000 to 10000 | < 100 | COCC(C)(C)C(=O)n1nc(-c2cccn(Cc3ncccn3)c2=O)cc1NCc1ccc(Cl)s1 [Cmpd 104, 3-(5-[(5-chlorothiophen-2-yl)methyl]amino-1-(3-methoxy-2,2-dimethylpropanoyl)-1H-pyrazol-3-yl)-1-(pyrimidin-2-ylmethyl)-1,2-dihydropyridin-2-one]
